# Data published in US4215069A, “Arylthiovinylcyclopropanecarboxylate intermediates” (FMC Corporation, priority 1979, dated 1980).
# What was measured:
# [1] = test system: milkweed bug (Oncopeltus faciatus [Dallas]); assay: Initial contact activity against milkweed bug (percent kill); format: in vivo; details: 72 hours exposure, read-out: Percent Kill MWB, initial activity
# Protocol: (§1) The test compound was dissolved in a small amount of acetone, and the acetone solution was dispersed in water containing one drop of isooctylphenyl polyethoxyethanol to make a solution having 1250 ppm (w/w) active ingredient. Aliquots of this solution were diluted with an appropriate amount of water to provide solutions containing various concentrations of active ingredient. Test organisms and techniques were as follows: the activity against Mexican bean beetle (Epilachna varivestis Muls.) and southern armyworm (Spodoptera eridania [Cram.]) was evaluated by dipping the leaves of pinto bean plants into the test solution and infesting the leaves with the appropriate immature-form insects when the foliage had dried. The activity against the pea aphid (Acyrthosiphon pisum [Harris]) was evaluated on broad bean plants whose leaves were dipped before infestation with adult aphids. The activity against twospotted spider mites (Tetranychus urticae Koch) was evaluated on pinto bean plants whose leaves were dipped after infestation with adult mites. The activity against the milkweed bug (Oncopeltus faciatus [Dallas]) was evaluated by spraying the test solutions into glass dishes or jars containing the adult insects. Following application of the compound and infestation the tests were maintained in a holding room at 80° F. and 50% relative humidity for an exposure period of 72 hours. At the end of this time the dead and living insects or mites were counted and the percent kill was calculated. Results of these tests are summarized in Table I. Most of the compounds tested were active against all the insects.
# [2] = test system: twospotted spider mites (Tetranychus urticae Koch); assay: Initial contact activity against twospotted spider mite (percent kill); format: in vivo; details: 72 hours exposure, read-out: Percent Kill SM, initial activity
# Protocol: as §1
# [3] = test system: Mexican bean beetle (Epilachna varivestis Muls.); assay: Initial contact activity against Mexican bean beetle (percent kill); format: in vivo; details: 72 hours exposure, read-out: Percent Kill MBB, initial activity
# Protocol: as §1
# Twospotted spider mite = assay: 7-day residual contact activity against twospotted spider mite (percent kill); format: in vivo; details: Tetranychus urticae, 168 h, treated surface aged seven days in light and air, read-out: Percent Kill SM, 7-day residual activity
# Protocol: as §1
# (§2) The residual contact activity of certain of the compounds was determined on the same organisms using the techniques described above, except that in each case the treated surface was allowed to dry and was exposed to normal light and air for seven days before introduction of the mites or insects. The seven day residual activity was minimal for the mite but substantial against the remaining organisms. Again, the remarkable activity of some of these compounds against milkweed bug and Mexican bean beetle was noted.
# Pea aphid = assay: 7-day residual contact activity against pea aphid (percent kill); format: in vivo; details: Acyrthosiphon pisum, 168 h, treated surface aged seven days in light and air, read-out: Percent Kill PA, 7-day residual activity
# Protocol: as §1, §2
# Milkweed bug = assay: 7-day residual contact activity against milkweed bug (percent kill); format: in vivo, Oncopeltus faciatus; details: Oncopeltus fasciatus, 168 h, treated surface aged seven days in light and air, read-out: Percent Kill MWB, 7-day residual activity
# Protocol: as §1, §2
# [4] = test system: pea aphid (Acyrthosiphon pisum [Harris]); assay: Initial contact activity against pea aphid (percent kill); format: in vivo; details: 72 hours exposure, read-out: Percent Kill PA, initial activity
# Protocol: as §1
# [5] = test system: southern armyworm (Spodoptera eridania [Cram.]); assay: Initial contact activity against southern armyworm (percent kill); format: in vivo; details: 72 hours exposure, read-out: Percent Kill AW, initial activity
# Protocol: as §1
# Mexican bean beetle = assay: 7-day residual contact activity against Mexican bean beetle (percent kill); format: in vivo; details: Epilachna varivestis, 168 h, treated surface aged seven days in light and air, read-out: Percent Kill MBB, 7-day residual activity
# Protocol: as §1, §2
# Southern armyworm = assay: 7-day residual contact activity against southern armyworm (percent kill); format: in vivo; details: Spodoptera eridania, 168 h, treated surface aged seven days in light and air, read-out: Percent Kill AW, 7-day residual activity
# Protocol: as §1, §2
# [6] = prior art, Elliott, et al.; cited from earlier work
smiles,measurement,setting,value
"CC1(C)C(C=C(Cl)Sc2ccccc2)C1C(=O)OC(C#N)c1cccc(Oc2ccccc2)c1 (mixture of isomers) [Example 3, α-cyano-3-phenoxybenzyl cis,trans-3-[2-(E,Z)-chloro-2-phenylthioethenyl]-2,2-dimethylcyclopropanecarboxylate]",mortality at 20 ppm,[1]; 20 ppm,70%
same,mortality at 78 ppm,[1]; 78 ppm,100%
same,mortality at 312 ppm,[1]; 312 ppm,100%
same,mortality at 1250 ppm,[1]; 1250 ppm,100%
same,mortality at 20 ppm,[2]; 20 ppm,0%
same,mortality at 78 ppm,[2]; 78 ppm,0%
same,mortality at 312 ppm,[2]; 312 ppm,0%
same,mortality at 1250 ppm,[2]; 1250 ppm,49%
same,mortality at 1.2 ppm,[3]; 1.2 ppm,80%
same,mortality at 5 ppm,[3]; 5 ppm,100%
same,mortality at 20 ppm,[3]; 20 ppm,92%
same,mortality at 78 ppm,[3]; 78 ppm,92%
same,mortality at 1250 ppm,[3]; 1250 ppm,94%
same,activity at 1250 ppm,Twospotted spider mite,0%
same,activity at 78 ppm,Pea aphid; 78 ppm,50%
same,activity at 312 ppm,Pea aphid; 312 ppm,65%
same,activity at 1250 ppm,Pea aphid; 1250 ppm,100%
same,activity at 78 ppm,Milkweed bug; 78 ppm,70%
same,activity at 312 ppm,Milkweed bug; 312 ppm,85%
same,activity at 1250 ppm,Milkweed bug; 1250 ppm,100%
same,mortality at 20 ppm,[4]; 20 ppm,27%
same,mortality at 78 ppm,[4]; 78 ppm,60%
same,mortality at 312 ppm,[4]; 312 ppm,85%
same,mortality at 1250 ppm,[4]; 1250 ppm,100%
same,mortality at 1.2 ppm,[5]; 1.2 ppm,0%
same,mortality at 5 ppm,[5]; 5 ppm,0%
same,mortality at 20 ppm,[5]; 20 ppm,0%
same,mortality at 78 ppm,[5]; 78 ppm,75%
same,mortality at 1250 ppm,[5]; 1250 ppm,100%
same,activity at 2.5 ppm,Mexican bean beetle; 2.5 ppm,66%
same,activity at 10 ppm,Mexican bean beetle; 10 ppm,75%
same,activity at 39 ppm,Mexican bean beetle; 39 ppm,100%
same,activity at 78 ppm,Mexican bean beetle; 78 ppm,100%
same,activity at 1250 ppm,Mexican bean beetle; 1250 ppm,97%
same,activity at 20 ppm,Southern armyworm; 20 ppm,62%
same,activity at 78 ppm,Southern armyworm; 78 ppm,56%
same,activity at 312 ppm,Southern armyworm; 312 ppm,53%
same,activity at 1250 ppm,Southern armyworm; 1250 ppm,100%
"CC1(C)C(C=C(Cl)Cl)C1C(=O)OCc1cccc(Oc2ccccc2)c1 (stereo not drawn) [3-phenoxybenzyl 3-(β,β-dichlorovinyl)-2,2-dimethylcyclopropanecarboxylate]",resistance to photo-oxidative degradation in words,[6],remarkably resistent to photo-oxidative degradation
